Measured values as given in patent publication US11884638B2, “Compound or salt thereof, composition for cysteine detection, fluorescent probe and composition for diagnosing cancer containing the same, method for detecting cysteine, method for providing information for diagnosing cancer, and method for producing compound” (Industry-Academic Cooperation Group of Kyung Hee University, priority 2021, dated 2024).

Key:
[1] = Fluorescence emission of Compound 1 with cysteine added to non-pretreated urine; design: species or system human
Protocol: In order to confirm the reaction of Compound 1 with cysteine in urine, non-pretreated urine (198 μL) was treated with varying concentrations (1 to 120 ng/μL) of cysteine, and then treated with Compound 1 (100 μM). The resulting urines were stirred in a stirrer at 37° C. for 40 minutes, and the fluorescence spectra were measured (excitation wavelength: 488 nm). In addition, Compound 1 was used after dissolution in a DMSO solution at 10 mM, and the amount of DMSO in the final solvent condition was controlled to be the same for each container (less than 1%).
Specifically, a spectro-fluorophotometer (SHIMADZU Corp. RF-6000, Japan) was used to analyze the emission spectrum, and the glass cuvette used for fluorescence measurement was a standard quartz cell (internal volume=[…], Hellma Analytics, Jena, Germany) having a thickness of 1 cm on all sides. In addition, a chamber (WUV-L10, DAIHAN Scientific) capable of excitation at a wavelength of 365 nm was used to visually observe the fluorescence change.
When the urine was treated with compound 1 (100 μM) and cysteine (60 ng/μL or higher), fluorescence changes were visible without a separate fluorescence measurement device. Although fluorescence changes were not visible when the urine was treated with Compound 1 (100 μM) and cysteine (concentration of 10 ng/μL or lower), examination was made as to whether fluorescence changes in this treatment could be confirmed using a fluorescence measurement device (FIG. 1(b)). Referring to FIG. 1(b), significant fluorescence changes could be obtained in the presence of 1 ng/μL of cysteine in urine, and statistical data thereon are shown below.

[2] = Binding selectivity of Compound 1 to cysteine in urine by fluorescence change; conditions: 37° C. 40 minutes, excitation 488 nm; for selectivity of fluorescence change among biomolecules detectable in urine: each biomolecule 100 μM (cysteine, glutathione, aspartic acid, glutamine, lysine, arginine, adenosine triphosphate, sucrose, ammonium), FIG. 2(b)
Protocol: Specifically, in order to determine whether Compound 1 selectively binds to cysteine in urine, cysteine and N-ethylmaleimide (NEM) (500 μM) capable of lowering cysteine concentration in urine were used. In addition, glutathione, aspartic acid, glutamine, lysine, arginine, adenosine triphosphate, sucrose, and ammonium used in the experiment were products obtained from TCI (Tokyo Chemical Industry Co., Ltd), Sigma Aldrich, and Alfa Company. The concentration of each biomolecule was equally measured at 100 μM. In addition, in order to obtain fluorescence spectra and values, Compound 1 and an unknown sample were stirred at 37° C. for 40 minutes and then excited at a wavelength of 488 nm.
The types of biomolecules indicated on the x-axis of FIG. 2(b) are as follows, and the following Probe 1 corresponds to Compound 1: • (A) Probe 1; • (B) Probe 1 with L-cysteine; • (C) Probe 1 with L-glutathione; • (D) Probe 1 with L-aspartic acid; • (E) Probe 1 with L-glutamine; • (F) Probe 1 with L-lysine; • (G) Probe 1 with L-arginine; • (H) Probe 1 with adenosine triphosphate; • (I) Probe 1 with sucrose; • (J) Probe 1 with ammonium.

[3] = Fluorescence spectral analysis of Compound 1 in urine derived from cervical cancer patients; design: species or system human; conditions: Compound 1 100 μM, urines N=100 versus normal N=308, 37° C. 40 minutes
Protocol: Specifically, fluorescence spectral analysis was performed immediately after treatment of the urines with Compound 1 (black line). After stirring at 37° C. for 40 minutes, fluorescence spectral analysis was performed (red line). […]

[4] = Fluorescence spectral analysis of Compound 1 in urines from patients with other diseases including cancer; design: species or system human; conditions: Compound 1 100 μM, 37° C. 40 minutes
Description: The urines used in the experiment were collected from urolithiasis patients (B, N=162), kidney cancer patients (C, N=162), prostate cancer patients (D, N=162), bladder cancer patients (E, N=162), cervical cancer patients (F, N=100), diabetic patients (G, N=100), pituitary cancer patients (H, N=100), adrenal cancer patients (I, N=100), lung cancer patients (J, N=100), ovarian cancer patients (K, N=100), pancreatic and biliary tract cancer patients (L, N=100), and pancreatic cancer patients (M, N=100). In the measurement method, each of the collected urine (198 μL) and Compound 1 (100 μM) were mixed together, the fluorescence spectra thereof were measured, and the highest fluorescence intensity value was taken. Then, each mixture was stirred at 37° C. for 40 minutes, and the highest fluorescence intensity value obtained from the fluorescence spectra was taken. The difference between the fluorescence intensity values before and after the reaction was shown as a bar graph.

For O=[N+]([O-])c1ccc(Oc2c(F)c(F)c(F)c(F)c2F)c2nonc12 [Compound 1, 4-nitro-7-(Perfluorophenoxy)benzo[c][1,2,5]oxadiazole], the “cysteine concentration at which fluorescence changes were visible without a separate fluorescence measurement device” value ([1]; normal urine, Compound 1 100 μM, 37° C. 40 minutes, excitation at 365 nm) was no less than 60 ng/µL, the “cysteine concentration at which fluorescence changes were not visible” value ([1]; normal urine, Compound 1 100 μM, 37° C. 40 minutes, excitation at 365 nm, by eye) was no more than 10 ng/µL and the “cysteine concentration in urine giving significant fluorescence changes using a fluorescence measurement device” value ([1]; urine, Compound 1 100 μM, 37° C. 40 minutes, excitation 488 nm) was 1 ng/µL. The “wavelength of fluorescence turn-on upon binding to cysteine” value ([1]; when bound to cysteine) was roughly 550 nm, the “fluorescence value in urine containing cysteine” value ([2]; FIG. 2(a)) was “high fluorescence value” and the “fluorescence value on co-treatment with N-ethylmaleimide which reduces cysteine” value ([2]; N-ethylmaleimide 500 μM, urine, FIG. 2(a)) was “fluorescence value decreased”. The “selectivity of fluorescence change among biomolecules detectable in urine” value [2] was “significant fluorescence change could be observed only for cysteine”, the “selectivity of fluorescence change among biomolecules detectable in urine” value ([2]; listed as 4-nitro-7-(perfluorophenoxy)benzo[c][1,2,5]oxadiazole) was “selectively detect cysteine in urine without interference of other biomolecules” and the “fluorescence values after reaction in urines derived from cervical cancer patients” value [3] was “high fluorescence values”. The “patient group with the largest fluorescence emission effect” value ([4]; cervical cancer patients (F) compared with the other patient groups) was “greatest in the case of cervical cancer patients” and the “fluorescence emission (difference of highest fluorescence intensity before and after reaction) in patient urines” value ([4]; urines of urolithiasis (B), cervical cancer (F), adrenal cancer (I), ovarian cancer (K), pancreatic and biliary tract cancer (L) patients) was “noticeable fluorescence emission was observed”.
